ChEMBL document CHEMBL3992508, “Synthesis and bioactivity investigation of quinone-based dimeric cationic triazolium amphiphiles selective against resistant fungal and bacterial pathogens” (Eur J Med Chem, 2017)
Values after ≈ are worked out from the molar mass of the structure shown. Active and inactive are the calls of the source. The rule behind the calls is not given here.

Key:
Pseudomonas aeruginosa [1] = test: Antibacterial activity against Pseudomonas aeruginosa ATCC 27853; format: functional
Candida albicans [2] = test: Antifungal activity against azole-resistant Candida albicans ATCC 64124; format: functional
Candida albicans [3] = test: Antifungal activity against azole-susceptible Candida albicans MYA2876; format: functional
Staphylococcus aureus [4] = test: Antibacterial activity against Staphylococcus aureus ATCC 25923; format: functional
Staphylococcus aureus [5] = test: Antibacterial activity against methicillin-resistant Staphylococcus aureus ATCC 33591; format: functional
Klebsiella pneumoniae [6] = test: Antibacterial activity against Klebsiella pneumoniae ATCC 13883; format: functional
Enterococcus faecalis [7] = test: Antibacterial activity against vancomycin-resistant Enterococcus faecalis ATCC 51299; format: functional
SK-OV-3 [8] = test: Cytotoxicity against human SKOV3 cells after 48 hrs; format: cell-based; details: SK-OV-3, 48 h
Aspergillus flavus = test: Antifungal activity against Aspergillus flavus; format: functional
SK-OV-3 [9] = test: Cytotoxicity against human SKOV3 cells at 10 ug/ml after 48 hrs by MTT assay; format: cell-based; details: sk-ov-3, 48 h
Escherichia coli [10] = test: Antibacterial activity against Escherichia coli ATCC 25922; format: functional
Cryptococcus neoformans = test: Antifungal activity against Cryptococcus neoformans; format: functional
Fusarium graminearum = test: Antifungal activity against Fusarium graminearum B4-A5 assessed as cell membrane disruption at MIC after 1 hr by Sytox Green dye based fluorescence assay; format: functional
Candida albicans [11] = test: Antifungal activity against Candida albicans ATCC 64124 assessed as cell membrane disruption at MIC after 1 hr by Sytox Green dye based fluorescence assay; format: functional
Rhodotorula mucilaginosa = test: Antifungal activity against Rhodotorula pilimanae; format: functional
Staphylococcus aureus [12] = test: Antibacterial activity against methicillin-resistant Staphylococcus aureus ATCC 33591 at 5 mg/ml; format: functional
Staphylococcus aureus [13] = test: Antibacterial activity against Staphylococcus aureus ATCC 25923 at 5 mg/ml; format: functional
Escherichia coli [14] = test: Antibacterial activity against Escherichia coli ATCC 25922 at 5 mg/ml; format: functional
Klebsiella pneumoniae [15] = test: Antibacterial activity against Klebsiella pneumoniae ATCC 13883 at 5 mg/ml; format: functional
Pseudomonas aeruginosa [16] = test: Antibacterial activity against Pseudomonas aeruginosa ATCC 27853 at 5 mg/ml; format: functional
Enterococcus faecalis [17] = test: Antibacterial activity against vancomycin-resistant Enterococcus faecalis ATCC 51299 at 5 mg/ml; format: functional

SMILES	MIC (Pseudomonas aeruginosa [1]) [µg/mL]	MIC (Candida albicans [2]) [µg/mL]	MIC (Candida albicans [3]) [µg/mL]	MIC (Staphylococcus aureus [4]) [µg/mL]	MIC (Staphylococcus aureus [5]) [µg/mL]	MIC (Klebsiella pneumoniae [6]) [µg/mL]	MIC (Enterococcus faecalis [7]) [µg/mL]	IC50 (SK-OV-3 [8]) [µg/mL]	MIC (Aspergillus flavus) [µg/mL]	Activity (SK-OV-3 [9])	MIC (Escherichia coli [10]) [µg/mL]	MIC (Cryptococcus neoformans) [µg/mL]	MIC (Rhodotorula mucilaginosa) [µg/mL]	further results
CCCC[n+]1nn(CCCCCCn2n[n+](CCCC)c3c2C(=O)c2ccccc2C3=O)c2c1C(=O)c1ccccc1C2=O.O=S(=O)([O-])C(F)(F)F.O=S(=O)([O-])C(F)(F)F	32	250	> 250	0.125	> 250	250	16	115	> 250	Non-Toxic	> 250			
NC[C@H]1O[C@H](O[C@H]2[C@H](O)[C@@H](O[C@H]3O[C@H](CO)[C@@H](O)[C@H](N)[C@H]3O)[C@H](N)C[C@@H]2N)[C@H](O)[C@@H](O)[C@@H]1O [KANAMYCIN]	125 (≈ 258 µM)			2 to 4 (≈ 4.13 to 8.26 µM)	125 to 250 (≈ 258 to 516 µM)	1 (≈ 2.06 µM)	250 (≈ 516 µM)				4 (≈ 8.26 µM)			
CCCCCCCCS(=O)(=O)OC[C@H]1O[C@H](O[C@@H]2[C@@H](O)[C@H](O[C@H]3O[C@H](CN)[C@@H](O)[C@H](O)[C@H]3O)[C@@H](N)C[C@H]2N)[C@H](O)[C@@H](N)[C@@H]1O.Cl.Cl.Cl.Cl		31.3	15.6						> 250			7.8		
CCCCCCCCCC[n+]1nn(CCCCCCn2n[n+](CCCCCCCCCC)c3c2C(=O)c2ccccc2C3=O)c2c1C(=O)c1ccccc1C2=O.O=S(=O)([O-])C(F)(F)F.O=S(=O)([O-])C(F)(F)F	4	3.91	3.91	8	4 to 8	32	1	68.4	7.81	Non-Toxic	4 to 8	2	2	Activity (Fusarium graminearum): Active; Activity (Candida albicans [11]): Active
O=C1c2ccccc2C(=O)c2c1nnn2CCCCCCn1nnc2c1C(=O)c1ccccc1C2=O														Activity (Staphylococcus aureus [12]): inactive; Activity (Staphylococcus aureus [13]): inactive; Activity (Escherichia coli [14]): inactive; Activity (Klebsiella pneumoniae [15]): inactive; Activity (Pseudomonas aeruginosa [16]): inactive; Activity (Enterococcus faecalis [17]): inactive
C[n+]1nn(CCCCCCn2n[n+](C)c3c2C(=O)c2ccccc2C3=O)c2c1C(=O)c1ccccc1C2=O.O=S(=O)([O-])C(F)(F)F.O=S(=O)([O-])C(F)(F)F	250	> 250	> 250	0.125	> 250	250	16	46.1	> 250	Toxic	> 250	125	62.5	
CN[C@H](CC(C)C)C(=O)N[C@H]1C(=O)N[C@@H](CC(N)=O)C(=O)N[C@H]2C(=O)N[C@H]3C(=O)N[C@H](C(=O)N[C@H](C(=O)O)c4cc(O)cc(O)c4-c4cc3ccc4O)[C@H](O)c3ccc(c(Cl)c3)Oc3cc2cc(c3O[C@@H]2O[C@H](CO)[C@@H](O)[C@H](O)[C@H]2O[C@H]2C[C@](C)(N)[C@H](O)[C@H](C)O2)Oc2ccc(cc2Cl)[C@H]1O [VANCOMYCIN]	> 250				2 to 4 (≈ 1.38 to 2.76 µM)	> 250	125 (≈ 86.3 µM)				64 to 125 (≈ 44.2 to 86.3 µM)			
CCCCCC[n+]1nn(CCCCCCn2n[n+](CCCCCC)c3c2C(=O)c2ccccc2C3=O)c2c1C(=O)c1ccccc1C2=O.O=S(=O)([O-])C(F)(F)F.O=S(=O)([O-])C(F)(F)F	16	250	> 250	4	8 to 16	250	4	109	> 250	Non-Toxic	8 to 16	125	15.6	
OC(Cn1cncn1)(Cn1cncn1)c1ccc(F)cc1F [FLUCONAZOLE]		> 250	1.56 (≈ 5.09 µM)											
CC[n+]1nn(CCCCCCn2n[n+](CC)c3c2C(=O)c2ccccc2C3=O)c2c1C(=O)c1ccccc1C2=O.O=S(=O)([O-])C(F)(F)F.O=S(=O)([O-])C(F)(F)F	250	> 250	> 250	0.125	> 250	250	32		> 250		> 250			
NCC[C@H](O)C(=O)N[C@@H]1C[C@H](N)[C@@H](O[C@H]2O[C@H](CN)[C@@H](O)[C@H](O)[C@H]2O)[C@H](O)[C@H]1O[C@H]1O[C@H](CO)[C@@H](O)[C@H](N)[C@H]1O [AMIKACIN]	1 (≈ 1.71 µM)			0.5 (≈ 0.854 µM)	16 (≈ 27.3 µM)	1 (≈ 1.71 µM)	> 250				1 (≈ 1.71 µM)			
CCCCCCCC[n+]1nn(CCCCCCn2n[n+](CCCCCCCC)c3c2C(=O)c2ccccc2C3=O)c2c1C(=O)c1ccccc1C2=O.O=S(=O)([O-])C(F)(F)F.O=S(=O)([O-])C(F)(F)F	4	3.91	3.91	4	4 to 8	16	1	74	15.6	Non-Toxic	2 to 4	3.9	2	
